This is an account of results in US9708359B2, “Pyrrolopyrimidine nucleosides and analogs thereof” (Chimerix, Inc., priority 2015, dated 2017).

One series has as its system POV-3. Nature of the series: microbe, parasite or virus in culture. Format: cell-based, Poliovirus. The conditions noted are these: Enterovirus C, Vero 76.
The test system of another series is HHV-6B. Nature of the series: organism not typed. It is filed as cell-based. Particulars: MOLT-3 cells.
The next series relates to VZV. Briefly: Plaque-reduction assay for VZV. Particulars: Human alphaherpesvirus 3, HFF cells. Format: cell-based, varicella zoster virus. On the procedure:
Plaque-Reduction Assays for HSV-1, HSV-2, VZV and HCMV:
Monolayers of cells were prepared in six-well plates and incubated at to allow the cells to reach confluency. Media was then aspirated from the wells and of virus was added to each of three wells to yield 20-30 plaques in each well. The virus was allowed to adsorb to the cells for 1 h and the plates were rocked gently every 15 min to redistribute the media. Compounds were diluted in maintenance cell culture media consisting of MEM with Earl's salts supplemented with 2% FBS, L-glutamine, penicillin, and gentamycin. Solutions were added to duplicate wells and the plates were incubated for various times, depending on the virus used. The plaque-reduction assay with HSV-1 strain F was performed in a similar manner but with Vero cells infected one day after plating. For HSV-1 and -2, the monolayers were stained with 1% crystal violet in 20% methanol and the unbound dye removed by washing with dH2O. For assays with HCMV and VZV, the cell monolayer was stained with 1% Neutral Red solution for 4 h then the stain was aspirated and the cells were washed with PBS. For all assays, plaques were enumerated using a stereomicroscope and the concentration of compound that reduced plaque formation by 50% (EC50) was interpolated from the experimental data. […]
On the technique in general: Plaques are areas of infected cells; plaque reduction assays count them against a control.

Another series deals with WNV. Briefly: microbe, parasite or virus in culture. Format: cell-based. Particulars: West Nile virus, Vero 76, Vero76 cells.
The nature of series [1]: Cytotoxicity (CC50) in RAW cells. The conditions noted are these: mouse.
A further series relates to DENV-2. Nature of the series: microbe, parasite or virus in culture. The conditions noted are these: Dengue virus, DENV2, Vero 76; DENV-2, Vero76 cells. Format: cell-based.
The subject of another series is RAW cells. Nature of the series: Conversion of Compound 1 to Triphosphate in RAW Cells.
The subject of a further series is HCV. Briefly: microbe, parasite or virus in culture. The conditions noted are these: Hepatitis C virus, Huh 7 cells. Format: cell-based. On the procedure:
Luciferase reporter (Replicon)/CytoTox-1 (Toxicity). Compounds were screened for anti-HCV activity using a luciferase (Luc) reporter gene endpoint in the HCV primary assay. The Luc reporter was used as an indirect measure of HCV replication as its activity is directly proportional to HCV RNA levels. Assessment of cytotoxicity is conducted in parallel. Drug stocks were prepared in DMSO unless otherwise specified and were diluted with tissue culture medium to the desired high-test concentration. For each assay, the compounds were then further diluted in tissue culture medium as required. After incubation, the cells were processed to derive, where applicable, EC50 and EC90 (compound concentration reducing replicon replication by 50% and 90% respectively). […] Anti-HCV activity was assessed with the replicon (genotype 1b or 2a) or HCVcc virus-derived Luc activity as readout; whereas the cytotoxic concentrations of drug reducing cell numbers was assessed by the CytoTox-1 cell proliferation assay according to manufacturer's protocol. […]
Luciferase reporter (Replicon)/CytoTox-1 (Toxicity). […] Anti-HCV activity was assessed with the replicon (genotype 1b or 2a) or HCVcc virus-derived Luc activity as readout; whereas the cytotoxic concentrations of drug reducing cell numbers was assessed by the CytoTox-1 cell proliferation assay (Promega, Madison, Wis.) according to manufacturer's protocol. […]

Another series concerns MEV. Briefly: microbe, parasite or virus in culture. It is filed as cell-based. The conditions noted are these: Measles morbillivirus, Vero 76, Vero76 cells.
The next series concerns human norovirus. Briefly: Efficacy of Compound 1 Against Human Norovirus (viral titer). It is filed as cell-based. Particulars: cells pretreated with 25 μM compound for two hours; duplicate (FIGS. 4-6). On the procedure: The efficacy of compound 1 for inhibiting norovirus was compared to DMSO (as a control), compound 2, and 2′-C-methylcytidine triphosphate (2′CmeC TP). Cells were pretreated with 25 μM of experimental compound for two hours. Virus inoculum was added for two hours, and unbound virus washed off and fresh media and fresh experimental compound was added.

The test system of a further series is YFV. Briefly: microbe, parasite or virus in culture. Format: cell-based. Particulars: Yellow fever virus, Vero.
Setting [2] is: RAW cells incubated with 0.5 μM Compound 1 for 48 hours.
[3] abbreviates: RAW cells incubated with 1 μM Compound 1 for 48 hours.
The mark [4] stands for this setting: RAW cells incubated with 5 μM Compound 1 for 48 hours.
Setting [5] is: RAW cells incubated with 10 μM Compound 1 for 48 hours.

Structures are written as SMILES.

As usually defined, the EC50 is the concentration at which the effect is half-maximal. As usually defined, the CC50 is the concentration giving 50% cytotoxicity. On to `Cc1nc(N)c2c(C(N)=O)cn([C@@H]3O[C@H](CO)[C@@H](O)[C@H]3O)c2n1` [Compound 1, 4-amino-7-((2R,3R,4S,5R)-3,4-dihydroxy-5-(hydroxymethyl)tetrahydrofuran-2-yl)-2-methyl-7H-pyrrolo[2,3-d]pyrimidine-5-carboxamide], for which the EC50 in the series with POV-3 is over 100 µM; in the series with HHV-6B it was 39.7 µM; with VZV, over 60 µM; in the series on WNV it was over 100 µM; in the series with DENV-2, over 100 µM; in the series on HCV, 18.4 µM. Also, the EC50 in the series with MEV and with YFV was over 100 µM in each case. The molecule also displayed a CC50 in [1] of 114 µM. Besides, the “Concentration (ng/1 × 10^6 cells)” value in the series with RAW cells (setting [2]) came to 0.17 ng/1 × 10^6 cells; in the series with RAW cells (setting [3]) it was 0.13 ng/1 × 10^6 cells; in the series with RAW cells (setting [4]), 0.65 ng/1 × 10^6 cells; in the series on RAW cells (setting [5]) it was 1.02 ng/1 × 10^6 cells. Besides, the “Concentration (pmol/1 × 10^6 cells)” value came out at 0.53 pmol/1 × 10^6 cells with RAW cells (setting [2]), 0.40 pmol/1 × 10^6 cells with RAW cells (setting [3]), 2.01 pmol/1 × 10^6 cells in the series with RAW cells (setting [4]) and 3.15 pmol/1 × 10^6 cells in the series with RAW cells (setting [5]). The viral titer result in the series on human norovirus was “increased less than one order of magnitude”.
